Laboratory results: PubChem BioAssay AID1361 (SRMLSC, 2008)
Calls of active or inactive are those of the source. How the calls were made is not given here.

Test: blockers of mitochondrial fusion, WT vs mutant – cell-based, chemical genetic, wild-type and mutant, confirmation (AID 1361)
Settings: Cell-based mitochondrial fusion phenotype, imaging
[1] = mutant cells, measured here: mutant cell line IC50

SMILES | IC50 (WT cells) | IC50 [1] [µM]
O=C(O)CCc1ccc(-c2ccc(F)cc2)n1Cc1ccco1 | > 25 µM (inactive) | > 25
O=[N+]([O-])c1ccccc1/C=N/n1c(C2CCCCC2)n[nH]c1=S | > 25 µM (inactive) | > 25
CN(C)c1ncc(S(=O)(=O)c2ccc(Cl)cc2)c(-c2ccc(Cl)cc2Cl)n1 | 9.56 µM | 15.3
CCCCCOC(=O)c1ccc(NC(=O)c2ccco2)cc1 | 12.4 µM (inactive) | 10.5
Cc1ccc(-n2cccc2C(=S)N=P(N(C)C)(N(C)C)N(C)C)cc1 | 9.32 µM | > 25
CCOc1cccc(Oc2ncccc2C(=O)/C(C#N)=C/N(C)C)c1 | > 25 µM (inactive) | > 25
O=C(COC(=O)c1ccccc1Cc1ccccc1)Nc1ccc(SC(F)F)cc1 | 5.92 µM | > 25
O=C(c1csc(Nc2ccccc2Cl)n1)N1CCCC1 | > 25 µM (inactive) | > 25
Cc1sc(NC(=O)c2ccco2)c(C(c2ccc(F)cc2)N2CCN(C)CC2)c1C (centres undefined) | 14.4 µM (inactive) | > 12.5
Cc1cnc(C(=O)OCC(=O)Nc2ccc(Cl)cc2)cn1 | > 25 µM (inactive) | > 12.5
Cc1ncsc1C(=O)Nc1nc2c(s1)CC(C)CC2 (centres undefined) | > 25 µM (inactive) | > 25
Cc1ccc(Cl)cc1N1CCN(CC(=O)NC2CCCc3ccccc32)CC1 (centres undefined) | 11.6 µM | 23.7
CCc1nnc(NC(=O)Nc2ccccc2OC)s1 | > 25 µM (inactive) | > 25
CC1CCCN(C(=O)CSc2nnc(-c3cccnc3)n2C2CCCCC2)C1 (centres undefined) | > 25 µM (inactive) | > 25
Cc1nc2ccccc2nc(C)c1=NOCc1ccc(Cl)cc1Cl | 24.2 µM | > 25
CCN1CCN(c2ccc(NC(=O)c3ccc4c(c3)OCO4)cc2)CC1 | > 25 µM (inactive) | > 25
Cc1ccccc1Nc1scc(-c2ccc(Cl)cc2)[n+]1-c1ccccc1C | 8.24 µM | > 25
Cc1ccc(S(=O)(=O)c2c(C)nn(C(C)(C)C)c2OC(=O)CC(C)C)cc1 | 22.5 µM | > 25
CCn1c(CCCOc2ccc(Cl)cc2Cl)nnc1SCC(=O)Nc1cc(F)ccc1C | 15.9 µM | > 25
Cc1nnc(SCC(=O)N2c3ccccc3C(C)(c3ccc(Cl)cc3)CC2(C)C)s1 (centres undefined) | 5.21 µM | > 25
Cc1ccc(C)c(NC(=O)c2ccccc2C(=O)c2ccccc2)c1 | 18.2 µM | > 25

SMILES | IC50 (WT cells) | IC50 [1] [µM]
CCCOP(=O)(OCCC)C(Nc1cccc(C(F)(F)F)c1)c1ccc(C)cc1 (centres undefined) | 11.2 µM | > 25
CCCn1c2c(c(O)c(C(=O)Nc3nccs3)c1=O)CCCC2 | 12.7 µM | > 25
Cc1ccc(NNC(=S)Nc2ccc(C(C)C)cc2)c(C)c1 | 15.3 µM | > 25
CCc1cccc(CC)c1NC(=S)NCCc1c(C)[nH]c2ccccc12 | 19.8 µM | > 25
N#CC(C#N)=c1ccc2c(c1)N1C3=C(CCCC3)CC3CCCCC31N=2 (centres undefined) | 3.41 µM | 7.81
Clc1ccc(C2=NNC(=NCc3ccc4c(c3)OCO4)SC2)cc1 | > 25 µM (inactive) | > 25
Cc1ccc(C)c(N2CCN(C(=O)C3CCCCN3S(=O)(=O)c3ccc(F)cc3)CC2)c1 (centres undefined) | 18.3 µM | > 25
COC(=O)c1ccc(/C=C(\C#N)c2nc3ccccc3s2)cc1 | > 25 µM (inactive) | > 25
c1ccc(Cn2c(CNc3nc4ccccc4n3CCN3CCCCC3)nc3ccccc32)cc1 | > 25 µM (inactive) | > 25
C/C(=N\N1CCCCC1c1cccnc1)c1c(O)n(C2CCCCC2)c(=S)[nH]c1=O (centres undefined) | > 25 µM (inactive) | > 25
CSCc1nnc(NC(=O)c2ccc(S(=O)(=O)N(CC(C)C)CC(C)C)cc2)o1 | > 25 µM (inactive) | > 25
Cc1ccc(NC(=S)N(Cc2cccc(Br)c2)CC2CCC(C(=O)O)CC2)cc1Cl (centres undefined) | 21.8 µM | > 25
CC1CCN(c2nc(Cl)nc(Nc3ccc([N+](=O)[O-])cc3)n2)CC1 | 7.41 µM | > 25
Cc1ccc(NC(=S)N(CCCN2CCCC2)Cc2cccn2Cc2ccc(Cl)cc2)cc1C | 13.1 µM | > 25
COc1cc(OC)c2c(c1)C(=O)c1cc(OC)cc(OC)c1C2=O | > 25 µM (inactive) | > 25
Cc1cccc(N/N=C(\C=N\N)C(=O)c2ccc(Br)cc2)c1 | > 25 µM (inactive) | > 25
CCOc1ccc(-n2c(SCC(=O)Nc3cc(C)on3)nnc2-c2c[nH]c3ccccc23)cc1 | > 25 µM (inactive) | > 25
CCC(C)(C)NC(=O)CN(C(=O)c1snc(C(N)=O)c1N)c1ccc2c(c1)OCCO2 | > 25 µM (inactive) | > 25
COC(=O)c1cn(N(C)c2ncc(C(F)(F)F)cc2Cl)c(=O)c2ccccc12 | 15.8 µM (inactive) | 15.5
COc1ccc(C(=O)N(Cc2nc(-c3ccc(C)cc3)no2)C2CCCCC2)cc1OC | 20.2 µM | > 25
COc1cccc(-c2nc(-c3ccccn3)no2)c1 | > 25 µM (inactive) | > 25

SMILES | IC50 (WT cells) | IC50 [1] [µM]
C=C(C)c1cccc(C(C)(C)NC(=O)Nc2ccc(Cl)cn2)c1 | 12.8 µM | > 25
CCOC(=O)c1c(NC(=O)c2cccs2)sc2c1CCCC2 | > 25 µM (inactive) | > 25
CC(=O)Cc1nsc(NC(=O)c2ccc(-c3ccc(Cl)c(Cl)c3)o2)n1 | > 25 µM (inactive) | > 25
COc1cc(/C=C2\SC(=O)N(c3ccccc3Cl)C2=O)cc([N+](=O)[O-])c1O | 13.6 µM | 20.8
Cc1ccc(-c2nnc(SCC(=O)N3CCOCC3)nc2-c2ccc(C)cc2)cc1 | > 25 µM (inactive) | > 25
COc1ccc(Cc2nn[nH]n2)cc1 | > 25 µM (inactive) | > 25
CC1(C(=O)OCC(=O)c2c[nH]c3ccccc23)CC1(Cl)Cl (centres undefined) | 5.84 µM | 9.97
O=S(Cc1ccc(Br)cc1)Cc1nnc(SCc2c(F)cccc2Cl)n1-c1ccccc1 (centres undefined) | > 25 µM (inactive) | > 25
CCCn1c(N2CCC(Cc3ccccc3)CC2)nc2c1c(=O)[nH]c(=O)n2C | > 25 µM (inactive) | > 25
COc1ccccc1-n1c(SCC(=O)c2ccc(O)cc2O)nc2cc([N+](=O)[O-])ccc21 | 6.02 µM | > 25
O=C(OCc1csc(Nc2ccccc2)n1)c1ccc(Cl)cc1 | 10.1 µM | 17.6
O=C(CN1C(=O)COc2ccccc21)N(Cc1cccnc1)Cc1cccc(F)c1 | > 25 µM (inactive) | > 25
COc1ccc(-c2nc(-c3ccccc3)[nH]c(=O)c2C#N)cc1 | > 25 µM (inactive) | > 25
CCCOC(=O)CN1C(=O)c2ccccc2C1=O | > 25 µM (inactive) | > 25
COc1ccc(-c2nnc(SCc3cc(C)cc(C)c3)o2)cc1 | 12.9 µM | > 25
CCOC(=O)N1CCC(NC(=O)c2cc(-c3ccc(F)cc3)[nH]c2C)CC1 | > 25 µM (inactive) | > 25
O=C(Nc1ccc(Cl)c(Cl)c1)c1ccc(Cn2cc(Cl)cn2)cc1 | 8.52 µM | 18.6
c1ccc(Cn2c(SCc3cn4cccnc4n3)nnc2-c2ccco2)cc1 | > 25 µM (inactive) | > 25
CC(Sc1ccc(Cl)cc1)C(=O)Nc1ccccc1-c1ccccc1 (centres undefined) | 13 µM | > 25
COc1cccc(C2=CC(c3ccccc3)n3nnnc3N2)c1 (centres undefined) | > 25 µM (inactive) | > 25
OCCN(CCO)CC(O)COc1ccc(C23CC4CC(CC(C4)C2)C3)cc1 (centres undefined) | > 25 µM (inactive) | > 25

SMILES | IC50 (WT cells) | IC50 [1] [µM]
COC(=O)CN(c1ccc2c(c1)OCCO2)S(=O)(=O)c1ccccc1 | > 25 µM (inactive) | > 25
Cc1ccc(/C=N/NC(=O)COc2ccccc2-c2ccccc2)cc1 | 14.9 µM | > 25
O/N=C(\c1ccc(Cl)cc1Cl)c1ncc(C(F)(F)F)cc1Cl | 20.9 µM | > 25
O=c1[nH][nH]c(-c2ccccc2)c1C=Nc1ccccc1 | > 25 µM (inactive) | > 25
CN(C)C(=O)CSc1nnc(CCCCCNC(=O)OC(C)(C)C)o1 | > 25 µM (inactive) | > 25
Cc1cc(-c2ccccc2)nc2cc(C(=O)N(Cc3ccccc3)Cc3ccccc3)nn12 | 8.35 µM | > 25
CCC(=O)Nc1ccc(-c2nnc(SCc3ccc(C(=O)Nc4nccs4)cc3)n2CC)cc1 | > 25 µM (inactive) | > 25
Cc1ccc(-c2cc(C(F)F)n3ncc(C(=O)N4CCN5CCCC5C4)c3n2)cc1 (centres undefined) | > 25 µM (inactive) | > 25
O=C(CCN1C(=O)/C(=C\c2cccs2)SC1=S)NC1=NCCS1 | 8.36 µM | 17.6
CCOc1ccc(NC(=S)NN(C)C(=S)Nc2ccc(OCC)cc2)cc1 | > 25 µM (inactive) | > 25
CC(C)N(C(=S)NC1CCCCC1)c1ccccc1 | > 25 µM (inactive) | > 25
CC(C)CCN(C(=S)Nc1cccc(F)c1)C(C)c1cccs1 (centres undefined) | 19.4 µM | > 25
CC1CCCN(C(=O)N2c3ccccc3Sc3ccccc32)C1 (centres undefined) | 18.8 µM | > 25
c1ccc2c(c1)nc(CN1CCOCC1)n1c3ccccc3nc21 | > 25 µM (inactive) | > 25
Nc1[nH]n2c(=O)c3c(nc2c1N=Nc1ccccc1)CCCC3 | > 25 µM (inactive) | > 25
Cc1nc(N2CCC(C)CC2)c2c(C)c(C(=O)Nc3cc(F)ccc3C)sc2n1 | 19.7 µM | > 25
CCOC(=O)c1c(C)[nH]c(C)c1C(=O)COC(=O)c1cc2ccccc2cc1O | 17.2 µM | > 25
COc1cc(/C=N/NC(=O)CCc2ccccc2)ccc1O | > 25 µM (inactive) | > 25
C[C@]1(C(=O)NCCCNc2ncc(C(F)(F)F)cc2Cl)C=C[C@@H](Cc2ccccc2)N1C(=O)c1ccccc1 | 11.9 µM | > 25
